The values that follow come from patent US20050215589A1, “Inhibitors of 5-HT2A receptor” (priority 2003, published 2005).

The target in assay [1] is T1, 5-HT2A (Homo sapiens, UniProt P28223). Kind of assay: FLIPR functional assay, inhibition of the 5-HT-evoked peak response (primary screening and IC50 determination). Particulars: CHO cells expressing 5-HT2A, 15 min pre-incubation, Ki calculated from IC50 (Cheng-Prusoff). Also on record: expressed in transfected cells; host or cells: CHO. The class given is cell-based. Here is the method: CHO cells expressing 5-HT2A receptors seeded in 384 well plates are pre-loaded with Fluo-4AM fluorescent dye and then incubated with compound (10 μM for primary screen) for 15 min. Fluorescent intensity is recorded using a Fluorometric imaging plate reader (FLIPR384, Molecular Devices) and inhibition of the peak response evoked by 5-HT (EC70 concentration) is calculated.
IC50 determinations are performed utilizing the same functional assay as described for primary screening (15 min antagonist compound pre-incubation), applying the compounds in the dose range of 3 nM to 10 μM.
(§1) The calculation of the Ki values for the inhibitors was performed by use of Activity Base. The Ki value is calculated from IC50 using the Cheng Prushoff equation (with reversible inhibition that follows the Michaelis-Menten equation): […] [Cheng, Y. C.; Prushoff, W. H. Biochem. Pharmacol. 1973, 22, 3099-3108].

The target in another assay is T2, 5-HT1A (Homo sapiens, UniProt P08908).
T2 construct: expressed in transfected cells; host or cells: CHO or HEK293
T2 sequence (P08908 1-422): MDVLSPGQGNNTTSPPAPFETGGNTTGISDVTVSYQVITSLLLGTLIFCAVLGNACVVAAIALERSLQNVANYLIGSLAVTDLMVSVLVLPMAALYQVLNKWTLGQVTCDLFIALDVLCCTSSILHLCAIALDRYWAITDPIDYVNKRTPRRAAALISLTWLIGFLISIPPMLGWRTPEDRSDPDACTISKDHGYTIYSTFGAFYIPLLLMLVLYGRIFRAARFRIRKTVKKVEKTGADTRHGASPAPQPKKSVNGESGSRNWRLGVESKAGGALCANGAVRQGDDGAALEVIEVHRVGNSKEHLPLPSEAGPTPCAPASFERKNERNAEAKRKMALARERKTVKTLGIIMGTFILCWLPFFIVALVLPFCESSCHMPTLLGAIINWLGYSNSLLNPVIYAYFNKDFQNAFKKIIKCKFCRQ
In words: Radioligand displacement binding (3H-8-OH-DPAT). Particulars: recombinant human receptor in CHO or HEK293; tracer 3H-8-OH-DPAT. The procedure:
(§2) The affinity constants of compounds were determined using recombinant human serotonin receptors stably expressed in fibroblast cell lines (CHO or HEK293), measuring the ability of the compounds to displace radio-labelled tracers using scintillation proximity assays or filter binding assays. For 5-HT1B, 5-HT2B and 5-HT2C receptor binding studies ^3H-LSD was used as radio ligand, for 5-HT2A and 5-HT6 ^3H-5-HT was used as tracer, while the binding constant to 5-HT1A was determined using ^3H-8-OH-DPAT. The non-selective serotonin receptor antagonist mianserine was used as reference substance.
as §1
Background: Loss of bound radioactivity is the signal in a displacement assay; it reports binding, not function.

Another assay concerns the target T3, 5-HT6 (Homo sapiens, UniProt P50406).
T3 construct: expressed in transfected cells; host or cells: CHO or HEK293
In words: Radioligand displacement binding (3H-5-HT). Particulars: recombinant human receptor in CHO or HEK293; tracer 3H-5-HT. The procedure:
as §2, §1

In assay [2] the target is T4, 5-HT2C (Homo sapiens, UniProt P28335).
T4 sequence (P28335 33-458): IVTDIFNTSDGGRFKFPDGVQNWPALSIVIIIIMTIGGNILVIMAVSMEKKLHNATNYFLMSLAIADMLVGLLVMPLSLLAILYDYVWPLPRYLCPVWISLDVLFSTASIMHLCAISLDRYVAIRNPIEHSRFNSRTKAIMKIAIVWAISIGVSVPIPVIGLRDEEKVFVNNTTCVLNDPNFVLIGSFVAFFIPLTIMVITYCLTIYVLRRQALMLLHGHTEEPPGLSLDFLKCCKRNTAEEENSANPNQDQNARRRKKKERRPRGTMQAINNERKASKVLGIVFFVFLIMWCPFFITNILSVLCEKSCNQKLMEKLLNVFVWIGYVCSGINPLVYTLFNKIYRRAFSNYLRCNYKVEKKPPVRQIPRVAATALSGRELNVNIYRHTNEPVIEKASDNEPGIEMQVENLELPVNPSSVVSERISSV
In words: FLIPR based assay, effect on 10 nM 5-HT induced Ca2+-currents. The class given is cell-based. Particulars: FLIPR functional assays. The procedure: The activity at 5-HT2C receptors was studied in a FLIPR based assay, measuring the effect of compounds on 10 nM 5-HT induced_Ca^2+-currents.

Assay [3] deals with T4, 5-HT2C. In words: Radioligand displacement binding (3H-LSD). Particulars: recombinant human receptor in CHO or HEK293; tracer 3H-LSD. The arrangement: expressed in transfected cells; host or cells: CHO or HEK293. The procedure:
as §2, §1

For the next assay, the target named is T5, 5-HT2B (Homo sapiens, UniProt P41595).
T5 construct: expressed in transfected cells; host or cells: CHO or HEK293
Kind of assay: Radioligand displacement binding (3H-LSD). Particulars: recombinant human receptor in CHO or HEK293; tracer 3H-LSD. Here is the method:
as §2, §1

In a further assay the target is T6, 5-HT1B (Homo sapiens, UniProt P28222).
T6 construct: expressed in transfected cells; host or cells: CHO or HEK293
In words: Radioligand displacement binding (3H-LSD). Particulars: recombinant human receptor in CHO or HEK293; tracer 3H-LSD. The procedure: as §2, §1

Assay [4] deals with T1, 5-HT2A. Kind of assay: Radioligand displacement binding (3H-5-HT). The arrangement: expressed in transfected cells; host or cells: CHO or HEK293. The procedure:
as §2, §1

By Ki is commonly meant the equilibrium dissociation constant of an inhibitor or competing ligand from its target.

T1 sequence (P28223 whole entry): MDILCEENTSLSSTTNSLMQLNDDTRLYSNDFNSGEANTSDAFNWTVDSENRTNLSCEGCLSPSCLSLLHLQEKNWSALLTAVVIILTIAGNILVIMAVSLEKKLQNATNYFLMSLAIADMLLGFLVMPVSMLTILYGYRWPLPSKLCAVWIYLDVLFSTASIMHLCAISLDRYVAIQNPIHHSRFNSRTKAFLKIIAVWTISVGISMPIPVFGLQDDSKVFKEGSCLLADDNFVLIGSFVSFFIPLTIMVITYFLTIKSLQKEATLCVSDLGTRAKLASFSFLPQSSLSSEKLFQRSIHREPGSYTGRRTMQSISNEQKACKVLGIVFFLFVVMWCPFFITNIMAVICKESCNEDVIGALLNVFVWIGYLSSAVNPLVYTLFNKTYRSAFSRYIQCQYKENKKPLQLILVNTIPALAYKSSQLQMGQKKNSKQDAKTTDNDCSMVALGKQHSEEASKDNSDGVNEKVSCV
T6 sequence (P28222 whole entry): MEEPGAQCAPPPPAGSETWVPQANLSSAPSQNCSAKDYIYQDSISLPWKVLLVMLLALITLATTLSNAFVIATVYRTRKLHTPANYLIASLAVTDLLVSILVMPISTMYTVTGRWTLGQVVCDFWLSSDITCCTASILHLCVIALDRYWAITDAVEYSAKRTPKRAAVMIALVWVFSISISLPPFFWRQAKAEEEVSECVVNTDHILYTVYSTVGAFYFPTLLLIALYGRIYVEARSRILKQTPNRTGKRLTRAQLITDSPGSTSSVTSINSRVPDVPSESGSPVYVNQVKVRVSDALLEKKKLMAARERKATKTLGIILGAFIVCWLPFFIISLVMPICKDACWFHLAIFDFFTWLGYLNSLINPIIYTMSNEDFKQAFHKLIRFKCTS
T5 sequence (P41595 whole entry): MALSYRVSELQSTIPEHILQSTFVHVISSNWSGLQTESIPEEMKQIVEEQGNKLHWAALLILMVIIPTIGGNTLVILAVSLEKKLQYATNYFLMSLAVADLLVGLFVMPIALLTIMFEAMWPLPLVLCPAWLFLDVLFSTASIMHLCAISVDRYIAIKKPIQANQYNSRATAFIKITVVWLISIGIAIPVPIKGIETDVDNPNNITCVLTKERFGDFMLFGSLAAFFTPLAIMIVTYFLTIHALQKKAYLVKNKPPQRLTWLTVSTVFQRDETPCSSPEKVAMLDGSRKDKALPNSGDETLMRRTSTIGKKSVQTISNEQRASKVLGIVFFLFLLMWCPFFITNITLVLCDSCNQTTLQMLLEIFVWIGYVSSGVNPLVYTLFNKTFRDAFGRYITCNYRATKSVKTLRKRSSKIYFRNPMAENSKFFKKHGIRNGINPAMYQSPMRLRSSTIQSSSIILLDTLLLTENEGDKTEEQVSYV
T3 sequence (P50406 whole entry): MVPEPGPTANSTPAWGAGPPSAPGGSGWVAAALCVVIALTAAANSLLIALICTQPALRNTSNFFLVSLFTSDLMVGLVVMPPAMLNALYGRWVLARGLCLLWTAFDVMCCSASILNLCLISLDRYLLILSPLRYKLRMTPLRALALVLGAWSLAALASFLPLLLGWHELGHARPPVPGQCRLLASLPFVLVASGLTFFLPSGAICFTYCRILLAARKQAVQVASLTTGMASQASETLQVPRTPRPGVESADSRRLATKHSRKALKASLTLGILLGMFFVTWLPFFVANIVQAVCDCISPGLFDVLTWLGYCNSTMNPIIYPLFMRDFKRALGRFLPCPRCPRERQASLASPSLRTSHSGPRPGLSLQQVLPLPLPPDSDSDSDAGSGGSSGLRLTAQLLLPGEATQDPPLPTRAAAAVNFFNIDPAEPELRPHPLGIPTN

In the case of `COc1cccc(OC)c1OCCN1CCC(C(=O)NC(=O)Nc2cccc(C(F)(F)F)c2)CC1` [Example 2, 1-[2-(2,6-dimethoxyphenoxy)ethyl]-N-({[3-(trifluoromethyl)phenyl]amino}carbonyl)piperidine-4-carboxamide], the Ki is 32.3 nM at 5-HT2A [1]; over 1000 nM at 5-HT1A; over 1000 nM at 5-HT6; over 1000 nM on 5-HT2C [3]; over 1000 nM on 5-HT2B; over 1000 nM at 5-HT1B. The Ki on 5-HT2A [4] (recombinant human receptor in CHO or HEK293, tracer 3H-5-HT) was determined as 23 nM. Also, the “Selectivity at 5-HT2A versus the 5-HT2C receptor in terms of efficacy” value on 5-HT2C [2] is “selective”. Also, the “Selectivity over five other serotonin receptors (5-HT2C, 5-HT2B, 5-HT1A, 5-HT6 and 5-HT1B)” value on 5-HT2A [4] (binding, 5-HT2A versus the other receptors) is listed as “highly selective”. In addition, the “Affinity for the 5-HT2A receptor subtype (Ki, in words)” value on 5-HT2A [4] (equilibrium displacement binding) is on record as “in the nanomolar range”.
